Data reported in patent US20250282785A1, “PYRROLIDINONE DERIVATIVES AS INHIBITORS OF NF KAPPA B INDUCING KINASE” (priority 2022, published 2025).
pIC50: −log10 of the molar value.

Key:
[1] = test system: p-IKKα levels in L363 (NIK translocated multiple myeloma) cells; experiment: Effect of compounds on p-IKKα levels in L363 cells (AlphaLISA SureFire Ultra); type: cell-based; conditions: Homo sapiens, L-363; L363 cells, BAFF stimulated, MG132, 6 h; average of values; read-out: Assay 2 IC50
Method in brief: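 L363 myeloma cells were BAFF-stimulated (250 ng/ml) overnight in DMEM/0.5% BSA, then exposed 6 h at 37° C to compound (11-point 1:3 series, 0.3% DMSO) with BAFF plus 10 uM MG132. p-IKKα (Ser 176/180) was read by AlphaLISA SureFire Ultra in lysates. IC50 came from sigmoidal fits normalized to stimulated and unstimulated controls.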

[2] = biological target: Recombinant Human NF-Kappab-Inducing Kinase (NIK/MAP3K14) (Homo sapiens, UniProt Q99558); experiment: Inhibition of auto-phosphorylation of recombinant human NIK/MAP3K14 (AlphaScreen); type: biochemical; conditions: NIK/MAP3K14 auto-phosphorylation, 5 microM ATP, 1 nM enzyme, 2 h at 25° C.; average of values; read-out: Assay 1 IC50
Method in brief: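 GST-tagged NIK (1 nM) auto-phosphorylation with 5 µM ATP in Tris pH 7.5/MgCl2 buffer, 0.7% DMSO, 2 h at 25 °C. Phospho-IKK Ser176/180 antibody detected by AlphaScreen beads. Signal normalized to full-enzyme and no-ATP controls; IC50 from sigmoidal fit of % inhibition vs log concentration.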

Recombinant Human NF-Kappab-Inducing Kinase (NIK/MAP3K14), sequence (Q99558 whole entry): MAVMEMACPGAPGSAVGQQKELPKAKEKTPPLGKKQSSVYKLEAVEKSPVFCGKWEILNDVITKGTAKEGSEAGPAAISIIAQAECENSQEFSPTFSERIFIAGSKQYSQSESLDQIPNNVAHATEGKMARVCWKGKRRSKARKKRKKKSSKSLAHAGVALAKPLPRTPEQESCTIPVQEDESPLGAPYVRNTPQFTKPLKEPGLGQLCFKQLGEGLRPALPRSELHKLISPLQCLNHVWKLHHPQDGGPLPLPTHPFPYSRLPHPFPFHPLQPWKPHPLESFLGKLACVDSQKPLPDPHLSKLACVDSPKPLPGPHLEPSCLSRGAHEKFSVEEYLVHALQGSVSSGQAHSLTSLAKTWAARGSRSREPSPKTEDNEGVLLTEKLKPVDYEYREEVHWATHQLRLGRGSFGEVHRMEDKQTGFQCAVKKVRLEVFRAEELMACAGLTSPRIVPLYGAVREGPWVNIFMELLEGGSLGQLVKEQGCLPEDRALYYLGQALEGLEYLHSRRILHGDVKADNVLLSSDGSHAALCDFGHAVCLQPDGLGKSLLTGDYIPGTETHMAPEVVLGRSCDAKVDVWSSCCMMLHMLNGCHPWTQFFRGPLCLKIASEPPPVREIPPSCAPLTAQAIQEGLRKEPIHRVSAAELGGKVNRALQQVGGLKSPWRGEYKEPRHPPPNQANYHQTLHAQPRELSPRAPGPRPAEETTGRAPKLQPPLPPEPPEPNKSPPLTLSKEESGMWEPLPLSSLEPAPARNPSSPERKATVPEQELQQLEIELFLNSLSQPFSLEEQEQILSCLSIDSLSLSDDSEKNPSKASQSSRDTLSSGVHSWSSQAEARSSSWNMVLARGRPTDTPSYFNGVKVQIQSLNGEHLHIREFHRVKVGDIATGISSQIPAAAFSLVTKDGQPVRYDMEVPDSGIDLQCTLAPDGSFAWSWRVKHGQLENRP

Structure (SMILES) | pIC50 [1] | pIC50 [2]
[2H]C1([2H])N(C)C(=O)[C@](O)(c2cc(-c3cccc(-c4cc(C5CC5)c(N)c(C(N)=O)n4)c3)no2)C1([2H])[2H] [Example 177, (R)-3-Amino-4-cyclopropyl-6-(3-(5-(3-hydroxy-1-methyl-2-oxopyrrolidin-3-yl-4,4,5,5-d4)isoxazol-3-yl)phenyl)picolinamide] | > 7.00 | > 7.00
CN1C(=O)[C@](O)(c2cc(-c3cccc(-c4cc(C5CC5)c(N)c(C(N)=O)n4)c3)no2)C[C@H]1C(F)(F)F [Example 178, 3-Amino-4-cyclopropyl-6-(3-(5-((3R,5S)-3-hydroxy-1-methyl-2-oxo-5-(trifluoromethyl)pyrrolidin-3-yl)isoxazol-3-yl)phenyl)picolinamide] | < 6.30 | > 7.00
[2H]C([2H])([2H])N1CC[C@@](O)(c2cc(-c3cccc(-c4cc(C5CC5)c(N)c(C(N)=O)n4)c3)no2)C1=O [Example 179, (R)-3-Amino-4-cyclopropyl-6-(3-(5-(3-hydroxy-1-(methyl-d3)-2-oxopyrrolidin-3-yl)isoxazol-3-yl)phenyl)picolinamide] | > 7.00 | > 7.00
[2H]C1([2H])N(C)C(=O)[C@](O)(c2cc(-c3cccc(-c4nc(C(N)=O)n5c4CCCC5)c3)no2)C1([2H])[2H] [Example 180, (R)-1-(3-(5-(3-Hydroxy-1-methyl-2-oxopyrrolidin-3-yl-4,4,5,5-d4)isoxazol-3-yl)phenyl)-5,6,7,8-tetrahydroimidazo[1,5-a]pyridine-3-carboxamide] | 6.30 to 7.00 | > 7.00
[2H]C([2H])([2H])N1CC[C@@](O)(c2cc(-c3cccc(-c4nc(C(N)=O)n5c4CCCC5)c3)no2)C1=O [Example 181, (R)-1-(3-(5-(3-Hydroxy-1-(methyl-d3)-2-oxopyrrolidin-3-yl)isoxazol-3-yl)phenyl)-5,6,7,8-tetrahydroimidazo[1,5-a]pyridine-3-carboxamide] | 6.30 to 7.00 | > 7.00
CN1CC[C@@](O)(c2cc(-c3cccc(-c4cc(-c5ccnn5C)cc(C(N)=O)n4)c3)no2)C1=O [Example 182, (R)-6-(3-(5-(3-Hydroxy-1-methyl-2-oxopyrrolidin-3-yl)isoxazol-3-yl)phenyl)-4-(1-methyl-1H-pyrazol-5-yl)picolinamide] | < 6.30 | > 7.00
CN1CC[C@@](O)(c2cc(-c3cccc(-c4cc(-c5ccns5)cc(C(N)=O)n4)c3)no2)C1=O [Example 183, (R)-6-(3-(5-(3-Hydroxy-1-methyl-2-oxopyrrolidin-3-yl)isoxazol-3-yl)phenyl)-4-(isothiazol-5-yl)picolinamide] | < 6.30 | > 7.00
CN1CC[C@@](O)(c2cc(-c3cccc(-c4cc(-c5cncs5)cc(C(N)=O)n4)c3)no2)C1=O [Example 184, (R)-6-(3-(5-(3-Hydroxy-1-methyl-2-oxopyrrolidin-3-yl)isoxazol-3-yl)phenyl)-4-(thiazol-5-yl)picolinamide] | 6.30 to 7.00 | > 7.00
CN1CC[C@@](O)(c2cc(-c3cccc(-c4cc(-c5ccnn5C5CC5)cc(C(N)=O)n4)c3)no2)C1=O [Example 185, (R)-4-(1-Cyclopropyl-1H-pyrazol-5-yl)-6-(3-(5-(3-hydroxy-1-methyl-2-oxopyrrolidin-3-yl)isoxazol-3-yl)phenyl)picolinamide] | < 6.30 | > 7.00
Cc1ncc(-c2cc(C(N)=O)nc(-c3cccc(-c4cc([C@]5(O)CCN(C)C5=O)on4)c3)c2)o1 [Example 186, (R)-6-(3-(5-(3-Hydroxy-1-methyl-2-oxopyrrolidin-3-yl)isoxazol-3-yl)phenyl)-4-(2-methyloxazol-5-yl)picolinamide] | 6.30 to 7.00 | > 7.00
CCn1cc(-c2cc(C(N)=O)nc(-c3cccc(-c4cc([C@]5(O)CCN(C)C5=O)on4)c3)c2)c(C)n1 [Example 187, (R)-4-(1-Ethyl-3-methyl-1H-pyrazol-4-yl)-6-(3-(5-(3-hydroxy-1-methyl-2-oxopyrrolidin-3-yl)isoxazol-3-yl)phenyl)picolinamide] | 6.30 to 7.00 | > 7.00
CCn1nc(C(F)(F)F)cc1-c1cc(C(N)=O)nc(-c2cccc(-c3cc([C@]4(O)CCN(C)C4=O)on3)c2)c1 [Example 188, (R)-4-(1-Ethyl-3-(trifluoromethyl)-1H-pyrazol-5-yl)-6-(3-(5-(3-hydroxy-1-methyl-2-oxopyrrolidin-3-yl)isoxazol-3-yl)phenyl)picolinamide] | < 6.30 | > 7.00
COCCn1cc(-c2cc(C(N)=O)nc(-c3cccc(-c4cc([C@]5(O)CCN(C)C5=O)on4)c3)c2)cn1 [Example 189, (R)-6-(3-(5-(3-Hydroxy-1-methyl-2-oxopyrrolidin-3-yl)isoxazol-3-yl)phenyl)-4-(1-(2-methoxyethyl)-1H-pyrazol-4-yl)picolinamide] | 6.30 to 7.00 | > 7.00
CN1CC[C@@](O)(c2cc(-c3cccc(-c4cc(-c5c[nH]nc5C5CC5)cc(C(N)=O)n4)c3)no2)C1=O [Example 190, (R)-4-(3-Cyclopropyl-1H-pyrazol-4-yl)-6-(3-(5-(3-hydroxy-1-methyl-2-oxopyrrolidin-3-yl)isoxazol-3-yl)phenyl)picolinamide] | < 6.30 | > 7.00
COc1ncc(-c2cc(C(N)=O)nc(-c3cccc(-c4cc([C@]5(O)CCN(C)C5=O)on4)c3)c2)s1 [Example 191, (R)-6-(3-(5-(3-Hydroxy-1-methyl-2-oxopyrrolidin-3-yl)isoxazol-3-yl)phenyl)-4-(2-methoxythiazol-5-yl)picolinamide] | 6.30 to 7.00 | > 7.00
Cc1cn(-c2cccc(-c3cc([C@]4(O)CCN(C)C4=O)on3)c2)nc1C(N)=O [Example 192, (R)-1-(3-(5-(3-Hydroxy-1-methyl-2-oxopyrrolidin-3-yl)isoxazol-3-yl)phenyl)-4-methyl-1H-pyrazole-3-carboxamide] | < 6.30 | > 7.00
CN1CC[C@@](O)(c2cc(-c3cccc(-n4ccc(C(N)=O)n4)c3)no2)C1=O [Example 193, (R)-1-(3-(5-(3-Hydroxy-1-methyl-2-oxopyrrolidin-3-yl)isoxazol-3-yl)phenyl)-1H-pyrazole-3-carboxamide] | < 6.30 | > 7.00
CN1CC[C@@](O)(c2cc(-c3cccc(-n4cc(C(N)=O)cn4)n3)no2)C1=O [Example 194, (R)-1-(6-(5-(3-Hydroxy-1-methyl-2-oxopyrrolidin-3-yl)isoxazol-3-yl)pyridin-2-yl)-1H-pyrazole-4-carboxamide] | < 6.30 | < 6.30
CN1CC[C@@](O)(c2cc(-c3cccc(-n4cc(C(N)=O)c(N)n4)n3)no2)C1=O [Example 195, (R)-3-Amino-1-(6-(5-(3-Hydroxy-1-methyl-2-oxopyrrolidin-3-yl)isoxazol-3-yl)pyridin-2-yl)-1H-pyrazole-4-carboxamide] | < 6.30 | > 7.00
CN1CC[C@@](O)(c2cc(-c3cccc(-c4cccc5c(=O)[nH]ccc45)n3)no2)C1=O [Example 196, (R)-5-(6-(5-(3-Hydroxy-1-methyl-2-oxopyrrolidin-3-yl)isoxazol-3-yl)pyridin-2-yl)isoquinolin-1(2H)-one] | < 6.30 | > 7.00
CN1CC[C@@](O)(c2cc(-c3cccc(-c4cccc5c(=O)[nH]cnc45)c3)no2)C1=O [Example 197, (R)-8-(3-(5-(3-Hydroxy-1-methyl-2-oxopyrrolidin-3-yl)isoxazol-3-yl)phenyl)quinazolin-4(3H)-one] | < 6.30 | < 6.30
CN1CC[C@@](O)(c2cc(-c3cccc(-c4cc(C(N)=O)ccn4)n3)no2)C1=O [Example 198, (R)-6′-(5-(3-Hydroxy-1-methyl-2-oxopyrrolidin-3-yl)isoxazol-3-yl)-[2,2′-bipyridine]-4-carboxamide] | < 6.30 | 6.30 to 7.00
CN1CC[C@@](O)(c2cc(-c3cccc(-c4nc(C(N)=O)cs4)c3)no2)C1=O [Example 204, (R)-2-(3-(5-(3-Hydroxy-1-methyl-2-oxopyrrolidin-3-yl)isoxazol-3-yl)phenyl)thiazole-4-carboxamide] | < 6.30 | > 7.00
CN1CC[C@@](O)(c2cc(-c3cccc(-c4csc(C(N)=O)n4)c3)no2)C1=O [Example 205, (R)-4-(3-(5-(3-Hydroxy-1-methyl-2-oxopyrrolidin-3-yl)isoxazol-3-yl)phenyl)thiazole-2-carboxamide] | < 6.30 | > 7.00
CN1CC[C@@](O)(c2cc(-c3cccc(-c4nc(C(N)=O)c(N)s4)c3)no2)C1=O [Example 206, (R)-5-Amino-2-(3-(5-(3-hydroxy-1-methyl-2-oxopyrrolidin-3-yl)isoxazol-3-yl)phenyl)thiazole-4-carboxamide] | > 7.00 | > 7.00
CN1CC[C@@](O)(c2cc(-c3cccc(-c4ccc(C(N)=O)o4)c3)no2)C1=O [Example 207, (R)-5-(3-(5-(3-Hydroxy-1-methyl-2-oxopyrrolidin-3-yl)isoxazol-3-yl)phenyl)furan-2-carboxamide] | < 6.30 | > 7.00
CN1CC[C@@](O)(c2cc(-c3cccc(-c4nc(C(N)=O)c(C5CC5)s4)c3)no2)C1=O [Example 208, (R)-5-Cyclopropyl-2-(3-(5-(3-hydroxy-1-methyl-2-oxopyrrolidin-3-yl)isoxazol-3-yl)phenyl)thiazole-4-carboxamide] | 6.30 to 7.00 | > 7.00
